From patent publication US20230061116A1, “TARGETING PAR1 AND PAR2 TO REGULATE LIPID AND CHOLESTEROL ABUNDANCE” (Mayo Foundation for Medical Education and Research, priority 2020, published 2023)

Columns and labels:
HMGCS1 = HMGCS1 expression in primary cortical neurons (real-time quantitative PCR); type: cell-based, murine
Experimental: FIG. 3 is a graph plotting HMGCS1 expression in cultures of primary cortical neurons treated with the PAR1 small molecule inhibitor Vorapaxar (100 nM) or vehicle control for 72 hours.
Expression of HMGCS1, an enzyme responsible for production of HMGCoA for the rate-limiting step in cholesterol biosynthesis, was quantified by real-time quantitative PCR.
HMGCS1 is responsible for production of HMGCoA for the rate-limiting step in cholesterol biosynthesis.

[1] = tested on: primary mouse cortical neurons; assay: Neurite outgrowth (TUJ1+ area) in primary cortical neurons; type: cell-based; conditions: co-treatment with subtherapeutic BDNF; 24 and 72 hours of treatment (FIG. 12)
Experimental: FIG. 12 contains a series of images showing that inhibition of PAR1 signaling accelerates neurite outgrowth in primary mouse cortical neurons. Murine neurons were cultured for 24 hours before addition of the PAR1 inhibitor Vorapaxar, subtherapeutic growth factor BDNF, or both. […] Neurite outgrowth was quantified by staining for TUJI (a cytoskeletal protein present in both axons and dendrites) and measuring TUJI+ area (the average of 5 randomly selected fields per well, 6 wells per treatment). Production of lipids and cholesterol, major constituents of neuronal membranes, was required to grow both axons and dendrites. Results are plotted in the graphs in the right panel (*P<0,05 SNK, n=6 all groups, both timepoints). […] Murine neurons were cultured for 24 hours before addition of the PAR1 inhibitor Vorapaxar, subtherapeutic growth factor BDNF, or both. […] Neurite outgrowth was quantified by staining for TUJ1 (a cytoskeletal protein present in both axons and dendrites) and measuring TUJ1+ area (the average of 5 randomly selected fields per well, 6 wells per treatment). Production of lipids and cholesterol, major constituents of neuronal membranes, was required to grow both axons and dendrites.

[2] = tested on: primary mouse cortical neurons; assay: Synaptogenesis (Homer puncta per TUJ1+ area) in primary cortical neurons; type: cell-based; conditions: co-treatment with subtherapeutic BDNF; 24 and 72 hours of treatment (FIG. 13)
Experimental: FIG. 13 contains images showing that inhibition of PAR1 signaling accelerates synaptogenesis in primary mouse cortical neurons. Murine neurons were cultured in vitro for 24 hours before addition of the PAR1 inhibitor Vorapaxar, subtherapeutic growth factor BDNF, Or both. […] Synapse density was quantified by staining for Homer, a scaffold protein concentrated at the post-synaptic densities by counting puncta in ImageJ. Synapse counts were normalized by total neurite area (TUJ1+ area) to determine the density of synapses on neurites (average of 5 randomly selected fields per well, 6 wells per treatment). Results are plotted in the graphs in the right panel *P<0.05 SNK, n=6 all groups, both timepoints). Inhibition of PAR1 signaling also accelerated synaptogenesis in primary mouse cortical neurons (FIG. 13). Murine neurons were cultured in vitro for 24 hours before addition of the PAR1 inhibitor Vorapaxar, subtherapeutic growth factor BDNF, or both. […] Synapse density was quantified by staining for Homer, a scaffold protein concentrated at the post-synaptic densities by counting puncta in ImageJ. Synapse counts were normalized by total neurite area (TUJ1+ area) to determine the density of synapses on neurites (average of 5 randomly selected fields per well, 6 wells per treatment).

Murine neurons = assay: Growth of new neurites after transection (scratch) injury in vitro; type: cell-based, mouse; conditions: co-treatment with subtherapeutic BDNF, added following scratch injury (FIG. 14)
Experimental: FIG. 14 contains a series of images showing that inhibition of PAR1 signaling accelerates growth of new neurites following transection injury in vitro. Murine neurons were cultured in vitro to confluence, and then a large wound was created by mechanically scratching the center of each field. The PAR1 inhibitor Vorapaxar, subtherapeutic growth factor BDNF, or both were added following injury. […] Results are plotted in the graph in the right panel (*P<0.05 SNK, n=6 all groups). Inhibition of PAR1 signaling accelerated growth of new neurites following transection injury in vitro (FIG. 14). Murine neurons were cultured in vitro to confluence, and then a large wound was created by mechanically scratching the center of each field. The PAR1 inhibitor Vorapaxar, subtherapeutic growth factor […], or both were added following injury.

[3] = tested on: primary mouse cortical neurons; assay: Neurite outgrowth under statin inhibition of cholesterol production; type: cell-based; conditions: statin-treated cultures
Text: Neurite outgrowth was quantified by staining for TUJ1 (a cytoskeletal protein present in both axons and dendrites) and measuring TUJ1+ area (the average of 5 randomly selected fields per well, 6 wells per treatment). *P<0.05 SNK, n=6 all groups.
Neurite outgrowth was quantified by staining for TUJ1 (a cytoskeletal protein present in both axons and dendrites) and measuring TUJ1+ area (the average of 5 randomly selected fields per well, 6 wells per treatment).

SH-SY5Y cells = assay: Cellular cholesterol content, amplex red colorimetric assay; type: cell-based, human; conditions: 100 nM, 72 hours (FIG. 22)
Experimental: FIG. 22 is a graph plotting human neuronal (SH-SY5Y) cells grown in the presence of the small molecule PAR1 inhibitor, Vorapaxar (“Vora,” at 100 nM) or control for 72 hours. […] Cholesterol content was quantified by the amplex red colorimetric assay. Finally, cholesterol levels were evaluated in a human neuronal cell line (SH-SY5Y cells) grown in the presence of the small molecule PAR1 inhibitor, Vorapaxar, for 72 hours.

| Molecule | HMGCS1 expression (HMGCS1; primary cortical neurons, 100 nM, 72 hours, vs vehicle-treated controls (FIG. 3)) | expression of HMGCS1 (real-time quantitative PCR) (HMGCS1; primary murine cortical neurons, with or without co-treatment with BDNF (FIG. 15)) | production of neurites (TUJ1+ area) [1] | production of synaptic densities (Homer puncta normalized by TUJ1+ area) [2] | growth of new neurites through the injury zone (TUJ1+ area in the scratch) (Murine neurons) | recovery of neurite production (TUJ1+ area) from statin treatment ([3]; agent alone (FIG. 16)) | recovery of neurite production (TUJ1+ area) from statin treatment ([3]; co-treatment of PAR1 inhibitor with subtherapeutic BDNF (FIG. 16)) | cellular cholesterol vs untreated cells (SH-SY5Y cells) |
| --- | --- | --- | --- | --- | --- | --- | --- | --- |
| CCOC(=O)N[C@@H]1CC[C@@H]2[C@@H](C1)C[C@H]1C(=O)O[C@H](C)[C@H]1[C@H]2/C=C/c1ccc(-c2cccc(F)c2)cn1 [Vorapaxar] | promoted increases in HMGCS1 expression | increased the expression of HMGCS1 | potentiated the effect of BDNF, significantly increasing production of neurites | potentiated the effect of BDNF, significantly increasing production of synaptic densities | potentiated the effect of BDNF, significantly increasing growth of new neurites through the injury zone | did not result in recovery of neurite production | partially rescued neurite production from statin treatment | more than twice the amount of cellular cholesterol |
| BDNF: subtherapeutic growth factor BDNF (protein, UniProt P23560 19-247, looked up) Neurotrophic factor BDNF …: APMKEANIRGQGGLAYPGVRTHGTLESVNGPKAGSRGLTSLADTFEHVIEELLDEDQKVRPNEENNKDADLYTSRVMLSSQVPLEPPLLFLLEEYKNYLDAANMSMRVRRHSDPARRGELSVCDSISEWVTAADKKTAVDMSGGTVTVLEKVPVSKGQLKQYFYETKCNPMGYTKEGCRGIDKRHWNSQCRTTQSYVRALTMDSKKRIGWRFIRIDTSCVCTLTIKRGR | – | – | – | – | – | did not result in recovery of neurite production | – | – |
